In PubChem BioAssay AID179 (DTP/NCI, 2004):
“And” between values parts separate entries of the source, which are not always exact repeats. Equal values may be shown once. The source made the active and inactive calls.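 How the source made its calls: active means compounds giving half or more protection of infected cells from virus-caused growth loss, again on retest; inactive means the rest.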

Test system: CEM cells HIV-1 protection, formazan growth assay
Assay: NCI AIDS Antiviral Assay
Conditions: for IC50: measured here: growth of uninfected CEM cells
How it was run: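 Category rules: moderately active means at least 50% protection on retest, and confirmed active means 100% protection reproducibly. The underlying data came from a formazan growth assay in HIV-1-infected CEM cells.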

| Structure (SMILES) | EC50 [µM] | IC50 | outcome |
| --- | --- | --- | --- |
| COc1ccc(NS(=O)c2ccc(Cl)cc2)cc1 (stereo unspecified) | > 200 | 17.4 µM |  |
| CCOC(=O)C(=O)N(CC(=O)OC)C(=O)Cc1ccccc1 | 513 | 813 µM |  |
| O=c1n(-c2ccccc2)c(=O)n2n1C1Cc3ccccc3C12 (stereo unspecified) |  |  | inactive |
| CC(C)CCC[C@@H](C)[C@H]1CC[C@H]2[C@@H]3CCC4C[C@@H](CCC=C(c5cc(Cl)c(OCc6ccccc6C(=O)O)c(C(=O)O)c5)c5cc(Cl)c(OCc6ccccc6C(=O)O)c(C(=O)O)c5)CC[C@]4(C)[C@H]3CC[C@]12C (stereo partly specified) | 44.7 | > 200 µM |  |
| CN1C(=O)C(O)(CC(=O)c2ccccc2)c2ccccc21 (stereo unspecified) | > 200 | 35.5 µM |  |
| CCOC(=O)C(C)(c1c(C)[nH]c2ccccc12)c1c(C)[nH]c2ccccc12 |  |  | inactive |
| C/C(=N\N(C)C)C(CN1CCCCC1)C(c1ccccc1)c1c(O)c2ccccc2oc1=O (stereo unspecified) | > 69.2 | > 69.2 µM |  |
| CCC1CN2CCc3c([nH]c4ccccc34)C2C[C@@H]1CC(=O)N(C)C (stereo partly specified) | > 148 | > 148 µM |  |
| COC1CC(OC)C2OC(c3ccccc3)OCC2O1 (stereo unspecified) |  |  | inactive |
| O=S1(=O)OCCOS(=O)(=O)C1Cl | > 1050 | 178 µM |  |
| O=C1C=CC(c2ccccc2)(c2ccccc2)O1 | > 200 | 151 µM |  |
| C=C1CC(CNc2cc(Cl)nc(N)n2)C1 | > 200 | 55 µM |  |
| CCOC(=O)/C=C/CC(C)(C)CCOC(C)=O | > 200 | > 200 µM |  |
| CCC(C)NC(=S)N/N=C(\C)c1ccccn1 (stereo unspecified) | > 0.2 | 0.0158 µM |  |
| COc1ccccc1C1(c2ccccc2OC)OC(=O)c2ccccc21 | > 200 | 30.9 µM |  |
| CN1CC(=O)N2Cc3ccccc3-n3cccc3C2C1 (stereo unspecified) |  |  | inactive |
| C/C(=N\NC(=O)CC#N)C(CN1CCCCC1)C(c1ccccc1)c1c(O)c2ccccc2oc1=O (stereo unspecified) | > 70.8 | 40.7 µM |  |
| O=c1ssc(=Nc2ccccc2)n1-c1ccccc1 | > 200 | 67.6 µM and 56.2 µM |  |
| O=C1/C(=C/c2ccc(Br)s2)NC(=S)N1CN1CCOCC1 | > 200 | 36.3 µM |  |
| Cc1cc(C)n2c(=O)[nH]nc2c1 | > 200 | 178 µM |  |
| N#CC1(C#N)C2=C(CCCC2)NC(c2ccc(Br)cc2)C1(C#N)C#N (stereo unspecified) | > 0.2 | 0.0813 µM |  |
| C[C@@H]1C(O)CC[C@H](C)C12CC=CC2=O (stereo partly specified) | > 200 | > 200 µM |  |

| Structure (SMILES) | EC50 [µM] | IC50 | outcome |
| --- | --- | --- | --- |
| O=C1C(=O)c2ccccc2C(O)=C1CCCCCCCCC1CCCCC1 | > 200 | 12 µM |  |
| CNCCCNCCCSP(=O)(O)O | > 195 | 191 µM |  |
| CCOC(=O)C1=CNc2ccccc2N=C1N | > 200 | 34.7 µM |  |
| COC(=O)C(/C(=N/N)C(=O)Nc1ccc(C)c(C)c1)c1nc2ccc(Cl)cc2[nH]c1=O (stereo unspecified) | > 214 | 135 µM |  |
| CCC1SC2=NCCN2C1(O)c1ccc(Cl)cc1 (stereo unspecified) | > 200 | 102 µM |  |
| CC1=CC(=Nc2cccc3c(N=C4C=C(C)C(=O)O4)cccc23)OC1=O | > 200 | 1.41 µM |  |
| CCCCNc1nc2nc[nH]c2c(=O)[nH]1 | > 200 | > 200 µM |  |
| C=C1C(=O)O[C@H]2C1C[C@@H](O)[C@@]1(C)OC1CC[C@@]1(C)O[C@H]21 (stereo partly specified) | > 200 | 4.47 µM |  |
| CCC12CN(C(=O)OC)C3C(Br)C1CCC(=O)C32 (stereo unspecified) | > 200 | 178 µM |  |
| O=c1oc2ccccc2n1CCCn1c(=O)oc2ccccc21 | > 200 | > 200 µM |  |
| CN(C)c1ccc(/C=C/C(=O)[O-])cc1.CN(C)c1ccc(/C=C/C(=O)[O-])cc1.[Cu+2] | > 8.51 | > 8.51 µM |  |
| [N-]=[N+]=Nc1nnc(CCCCc2nnc(N=[N+]=[N-])o2)o1 | > 468 | 138 µM |  |
| COC(=O)c1c[nH]cc1CCCCc1c[nH]cc1C(=O)OC |  |  | inactive |
| S=C(Nc1ccccc1)N(/N=C/C=C/c1ccccc1)c1nnc(-c2ccccc2)c(-c2ccccc2)n1 | > 70.8 | 43.7 µM |  |
| O=C(O)CN(CC(=O)O)Cc1cc(C#Cc2ccc(C#Cc3ccccc3)cc2)cc(CN(CC(=O)O)CC(=O)O)n1 | > 77.6 | 19.5 µM |  |
| O=CC1=CCCN(CCc2c[nH]c3ccccc23)C1 | > 195 | 10.2 µM |  |
| CCO/C=N/C1=C(C#N)SC2=N/C(=C\c3ccccc3)C(=O)N21 | > 200 | 77.6 µM |  |
| O=C1CC(c2ccc([N+](=O)[O-])cc2)=Nc2ccccc2N1 | > 200 | > 200 µM |  |
| CCNC(=S)N/N=C/c1cc([N+](=O)[O-])ccc1O | > 200 | 5.01 µM |  |
| COc1cc2ccc3c4cc(OC)c(OC(C)C)cc4cnc3c2cc1OC |  |  | inactive |
| CCOc1cnc([C@H]2CCC3[C@@H]4CC=C5C[C@@H](OC(=O)CCC(=O)O)CC[C@]5(C)C4CC[C@@]32C)s1 (stereo partly specified) | > 50.1 | 32.4 µM |  |
| Cc1cc2nc(N)n[n+]([O-])c2cc1C | > 200 | > 200 µM |  |

| Structure (SMILES) | EC50 [µM] | IC50 | outcome |
| --- | --- | --- | --- |
| COc1cccc(C2c3cc4c(cc3OC3COC(=O)C32)OCO4)c1OC (stereo unspecified) | > 200 | 120 µM |  |
| Cc1cccc2c1Oc1ccccc1C2NC(=O)CN(C)C (stereo unspecified) | > 437 | 83.2 µM |  |
| COc1ccc(/C=C2\NC(=S)N(/C=C3\C(=O)Oc4ccccc4C3=O)C2=O)cc1OC | > 200 | > 200 µM |  |
| CC(C)OP(=O)(OC(C)C)C(Nc1cccc(C(F)(F)F)c1)c1ccccc1 (stereo unspecified) | > 200 | 33.9 µM |  |
| Clc1ccc(/C(=C/c2ccccc2)Cn2ccnc2)cc1 | > 200 | 35.5 µM |  |
| O=C(Cc1ccc([N+](=O)[O-])c([N+](=O)[O-])c1CC(=O)C(=O)Nc1cc(Cl)ccc1Cl)C(=O)Nc1cc(Cl)ccc1Cl | > 47.9 | 9.33 µM |  |
| CN1Cc2ccccc2[C@H]2C(c3ccccc3)=NN(c3ccccc3)[C@H]21 | > 200 | > 200 µM |  |
| O=C1OC2(c3ccccc3Oc3ccccc32)c2ccccc21 |  |  | inactive |
| CO[C@@H]1C2C3c4ccccc4C(c4ccccc43)C2[C@H](OC)[C@H]2OC(c3ccccc3)O[C@H]21 (stereo partly specified) | > 67.6 | > 67.6 µM |  |
| Cn1c(=O)cc(CC(=O)O)c2ccccc21 | > 200 | > 200 µM |  |
| CC(=O)/C(=C/c1cccc(Br)c1)C(=O)c1ccccc1 | > 21.9 | 11.2 µM |  |
| O=Nc1ccc(O)cc1 | > 20 | 3.89 µM |  |
| CC1CCOn2c1nc1ccccc1c2=O (stereo unspecified) | > 33.1 | > 33.1 µM |  |
| CC1CC(C)(C)N=C(CCCO)O1 (stereo unspecified) | > 200 | > 200 µM |  |
| COc1cccc(C2c3cc4c(cc3OC(N3CCCCC3)C2C)OCO4)c1O (stereo unspecified) | > 200 | 3.02 µM |  |
| C=C(C)[C@@H]1CC[C@]2(C(=O)O)CC[C@]3(C)[C@H](CC[C@@H]4[C@@]5(C)CC[C@H](C(=O)/C=C/c6ccc(O)cc6)C(C)(C)[C@@H]5CC[C@]43C)[C@@H]12 | > 200 | 2.34 µM |  |
| O=c1c2cc(Br)ccc2[nH]c(=S)n1-c1ccc(Br)cc1 | > 45.7 | > 45.7 µM |  |
| CC1(c2cccc([N+](=O)[O-])c2)C(C#N)C(=O)NC(=O)C1C#N (stereo unspecified) | > 417 | 245 µM |  |
| COc1ccc2c(c1)c[n+](C)c1c3cc(OC)c(OC)cc3ccc21 | > 151 | 1.32 µM and 1.45 µM and 1.35 µM |  |
| C=CN1C(=O)OC[C@@H]1c1ccccc1 | > 513 | > 513 µM |  |
